Experimental data from article PMC12756401, “Effect of itraconazole on pharmacokinetics of ZX-7101A tablets in healthy Chinese subjects” (Frontiers in Pharmacology, 2025).

Conditions: in vivo
Method: This single center, open label, fixed sequence trial consisted of two stages. Stage 1 was single oral administration of ZX-7101A tablets to the subjects under fasting condition, while Stage 2 included coadministration of ZX-7101A tablets and itraconazole capsules. Participants took ZX-7101A tablets 40 mg orally under fasting condition in the morning on D1 of Stage 1 and D31 of Stage 2. In drug-drug interaction clinical trials, the selected dose of the precipitant drug should maximize the potential to identify drug-drug interaction in the context of safety (i.e., achieving an exposure level close to the highest clinically recommended dose). […] The PK of itraconazole is influenced by its formulation, food intake, and gastrointestinal pH ([Liu et al., 2016]; [Allen et al., 2015]). […] Therefore, in this study, itraconazole was administered orally after meals to achieve maximum clinical exposure. Therefore, from D26 to D50 of Stage 2, the participants took 200 mg itraconazole capsules once daily for 25 consecutive days within 30 min after eating a standard breakfast (coadministration with ZX-7101A at the same time in the morning of D31 under fasting condition). […]
The safety of subjects was assessed in terms of adverse events (AEs) and serious adverse events (SAEs) after administration based on the findings of physical examination, vital signs, ECG, and laboratory tests.

Structure (SMILES): CCC(C)n1ncn(-c2ccc(N3CCN(c4ccc(OCC5COC(Cn6cncn6)(c6ccc(Cl)cc6Cl)O5)cc4)CC3)cc2)c1=O (centres unmarked) [Itraconazole, itraconazole]
- TEAE: COVID-19 (human): 0 n (%)
- drug-related TEAE: None of the subjects developed any drug-related TEAE
